Publication PMC8427023, “Bithiazole Inhibitors of Phosphatidylinositol 4‐Kinase (PI4KIIIβ) as Broad‐Spectrum Antivirals Blocking the Replication of SARS‐CoV‐2, Zika Virus, and Human Rhinoviruses” (Chemmedchem, 2021)
Values after ≈ are worked out from the molar mass of the structure shown. Where two headings read alike, the source gives them in different places. Marks after values point to notes of the source that are not given here.

Tests used:
[1] = Stability in medium/serum solution; assay type: in vitro ADME; details: EMEM, 2 mM L-glut, 1 % FBS, 1 % Pen/Strep, 37 °C
Description: (§1) appropriate calibration curve. For each compound, the determination was performed in three […]
(§2) Parallel Artificial Membrane Permeability Assay (PAMPA)
(§3) Each ‘donor solution’ was prepared from a solution of each compound (DMSO, 1 mM) diluted with 25 mM Phosphate Buffered Saline (PBS) at pH 7.4, up to a final concentration of 500 μM. The donor wells were filled with 150 µL of ‘donor solution’. The filters were coated with 5 μL of a solution of phosphatidylcholine in dodecane 1% (w/v) and the lower wells filled with 300 µL of ‘acceptor solution’ (50% v/v DMSO and PBS). The sandwich plate was assembled and incubated for 5 hours at room temperature under gentle shaking. At the end of the incubation time, the sandwich was disassembled and the amount of compound in the donor and acceptor wells was measured by LC-UV-MS. For each compound, the determination was performed in three independent experiments.
Apparent permeability (Papp) and membrane retention (%MR) were calculated according to the equations reported in reference.
(§4) Stability in Human Plasma
(§5) Pooled human plasma (1.5 mL, […]), PBS (1.4 mL, pH 7.4, 25 mM) and tested compound dissolved in DMSO (100 µL, 3.0 mM) were mixed in a test tube that was incubated at 37 […]
mixed with 600 µL of cold acetonitrile and centrifuged at 5000 rpm for 15 min [3]. The supernatant was removed and analyzed by LC-UV-MS. For each compound, the determination was performed in three independent experiments.
Stability in Medium/Serum solution
The stability of compounds under the experimental conditions used in the ENTRY-DYRA antiviral assay was evaluated. Each tested compound dissolved din DMSO (1.0 mL, 400 µM) was mixed in a test tube with EMEM, 2 mM L-glut, 1% FBS, 1% Pen/Strep solution (final concentration of the compound of 200 µM) and then incubated at 37 °C. At set time points (0.0, 0.08, 0.25, 0.50, 1.0, 3.0, and 24.0 h), samples of 100 µL were taken, mixed with 400 µL of cold acetonitrile and centrifuged at 5000 rpm for 15 min. The supernatant was removed and analyzed by UV/LC-MS. For each compound, the determination was performed in three independent experiments.

hRV2 [2] = assay: Multicycle CPE reduction antiviral assay, hRV2 in HeLa cells; assay type: cell-based, human rhinovirus 2; details: 3 days
[3] = Stability in medium/serum solution; assay type: in vitro ADME; details: EMEM, 2 mM L-glut, 1 % FBS, 1 % Pen/Strep, 37 °C; remark: listed apart in the source
physchem = assay type: physicochemical; details: pH 7.4, aqueous buffer
PI4KIIIβ = biological target: T1, PI4KIIIβ (Homo sapiens, UniProt Q9UBF8); assay: In vitro kinase inhibition assay, PI4KIIIβ; assay type: biochemical; details: mean of at least three independent experiments; 20 μM ATP
T1 construct: Recombinant full length, HIS6 -tagged PI4KIIIβ was purchased from ProQinase; His6; purchased ProQinase (Germany)

in vitro [4] = details: human
ZIKV = assay: Direct yield reduction assay (DYRA), ZIKV in Huh7 cells; assay type: cell-based, Zika virus; details: for IC50: Zika virus, read-out: ZIKV Huh7 IC50
hRV14 [5] = assay: Multicycle CPE reduction antiviral assay, hRV14 in HeLa cells; assay type: cell-based, human rhinovirus 14; details: 3 days
[6] = Cytotoxicity assay (CellTiter-Glo 2.0) in Calu-3 cells; assay type: cell-based; details: human, half-maximal cytotoxic concentration, read-out: SARS-CoV-2 Calu-3 CC50
in vitro [7] = assay type: in vitro ADME; details: PAMPA, pH 7.4; for Membrane Retention (% MR): 5 h, 500 μM
Description: as §1, §2, §3
Apparent permeability (Papp) and membrane retention (%MR) were calculated according to the equations reported in reference. […]

[8] = assay type: in vitro ADME; details: human, 24 h, 100 µM, pH 7.4
Description: appropriate calibration curve. […]
as §4, §5
mixed with 600 µL of cold acetonitrile and centrifuged at 5000 rpm for 15 min [3]. The supernatant was removed and analyzed by LC-UV-MS. For each compound, the determination was performed in three independent experiments. […]

in vitro [9] = details: human; remark: listed apart in the source
in vitro [10] = details: human; remark: listed apart in the source
in vitro [11] = details: human; remark: listed apart in the source
SARS-CoV-2 [12] = assay: microbe, parasite or virus in culture; assay type: cell-based; details: for IC50: read-out: SARS-CoV-2 Calu-3 IC50 (DYRA protocol)
SARS-CoV-2 [13] = assay: ENTRY-DYRA (entry inhibitor protocol), SARS-CoV-2 in Calu-3 cells; assay type: cell-based
HeLa = details: read-out: HeLa CC50; HeLa cells
[14] = Cytotoxicity assay (CellTiter-Glo 2.0) in Huh7 cells; details: human
Enterovirus-A71 (EV-A71) = system: Enterovirus-A71 (EV-A71); set-up: method as in PMID 28122178, PMID 31729878; details: at low micromolar concentration; cited from earlier work
coxsackievirus B3 (CVB3) = system: coxsackievirus B3 (CVB3); set-up: method as in PMID 28122178, PMID 31729878; details: at low micromolar concentration; cited from earlier work
hRV2 [15] = system: hRV2; set-up: method as in PMID 31729878; details: HeLa cells; cited from earlier work
hRV14 [16] = system: hRV14; set-up: method as in PMID 31729878; details: HeLa cells; cited from earlier work
[17] = PAMPA; cited from earlier work
[18] = pH 7.4; cited from earlier work
[19] = C57BL/6 mice, up to 180 mg/kg; cited from earlier work
[20] = Severe acute respiratory syndrome coronavirus 2, Calu-3 cells, 72 h incubation, ±SD, NA: Not active
[21] = Severe acute respiratory syndrome coronavirus 2, Calu-3, 72 h
[22] = Calu-3 cells treated 1 h before infection, compound and virus removed, 72 h incubation

T1 sequence (Q9UBF8 whole entry): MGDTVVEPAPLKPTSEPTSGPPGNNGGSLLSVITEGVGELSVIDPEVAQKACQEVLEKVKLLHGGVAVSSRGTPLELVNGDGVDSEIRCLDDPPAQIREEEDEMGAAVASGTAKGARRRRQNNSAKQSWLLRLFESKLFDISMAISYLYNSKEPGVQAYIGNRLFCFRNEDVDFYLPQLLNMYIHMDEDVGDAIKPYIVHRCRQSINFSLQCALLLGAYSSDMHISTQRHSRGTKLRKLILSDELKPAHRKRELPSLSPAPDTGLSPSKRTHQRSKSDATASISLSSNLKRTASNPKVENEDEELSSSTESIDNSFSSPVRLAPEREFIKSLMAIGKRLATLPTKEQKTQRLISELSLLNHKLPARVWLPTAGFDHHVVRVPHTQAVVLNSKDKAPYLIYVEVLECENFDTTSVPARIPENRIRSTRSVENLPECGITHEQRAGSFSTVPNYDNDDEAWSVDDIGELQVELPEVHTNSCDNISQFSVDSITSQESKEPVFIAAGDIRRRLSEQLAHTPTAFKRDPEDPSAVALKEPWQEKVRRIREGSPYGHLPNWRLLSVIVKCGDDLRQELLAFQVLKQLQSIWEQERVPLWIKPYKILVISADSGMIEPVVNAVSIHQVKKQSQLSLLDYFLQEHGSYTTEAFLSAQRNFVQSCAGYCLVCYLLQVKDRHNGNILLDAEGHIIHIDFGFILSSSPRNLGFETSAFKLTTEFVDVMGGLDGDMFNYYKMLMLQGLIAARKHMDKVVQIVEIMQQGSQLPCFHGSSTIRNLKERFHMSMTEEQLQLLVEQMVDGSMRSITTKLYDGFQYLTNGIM

Structure (SMILES)	Stability in Medium/Serum 24 h [1]	IC50 (hRV2 [2]; Rhinovirus A, HRV2, 72 h)	Stability in Medium/Serum 48 h [3]	solubility (physchem)	IC50 (PI4KIIIβ)	CC50 (in vitro [4])	IC50 (ZIKV; Huh-7, Huh7 cells, DYRA, 72 h)	IC50 (hRV14 [5]; Rhinovirus B, HRV14, 72 h)	CC50 [6]	Membrane Retention (% MR) (in vitro [7])	Papp at 5 h, 500 μM (in vitro [7])	Plasma Stability [8]	viability at 4 h, 50 µM (in vitro [9])	CC50 at 3 days (in vitro [10])	IC50 (SARS-CoV-2 [12]; [20])	further results
Cc1nc(NC(=O)C(C)(C)C)sc1-c1csc(NCC(O)CO)n1 (stereo not shown) [4 a]	99.0%	1.77 ± 0.62 µM	97.5%	5.26 µg/mL (≈ 14.2 µM)	0.29 ± 0.08 µM	> 200 µM	46.5 ± 2.96 µM	2.32 ± 1.54 µM	> 100 µM	< 0.1%	0.008 ×10⁻⁶ cm/s	99.4%	96%	> 30 µM	–	–
Cc1nc(NC(=O)C(C)(C)C)sc1-c1csc(N(CCO)CCO)n1 [4 b]	91.4%	1.37 ± 1.31 µM	84.9%	0.28 µg/mL (≈ 0.728 µM)	0.24 ± 0.05 µM	125 µM	5 ± 1.2 µM	2.07 ± 1.45 µM	> 100 µM	0.94%	0.021 ×10⁻⁶ cm/s	90.2%	92.6%	> 30 µM	–	–
Cc1nc(NC(=O)C(C)(C)C)sc1-c1csc(NCC(C)(C)O)n1 [4 c]	77%	0.39 ± 0.01 µM	67.3%	0.32 µg/mL (≈ 0.868 µM)	0.89 ± 0.2 µM	37 µM	0.83 ± 0.31 µM	0.48 ± 0.14 µM	> 100 µM	< 0.1%	0.323 ×10⁻⁶ cm/s	92.3%	98.3%	> 30 µM	–	–
Cc1nc(NC(=O)C(C)(C)C)sc1-c1csc(N(CC(C)(C)O)C2CCCCC2)n1 [4 d]	93.3%	0.9 ± 0.72 µM	85.7%	0.01 µg/mL (≈ 0.0222 µM)	1.97 ± 0.79 µM	4 µM	0.51 ± 0.05 µM	1.4 ± 1.2 µM	17 µM	18.05%	11.7 ×10⁻⁶ cm/s	92.4%	94.8%	23.8 ± 1.7 µM	1.57 ± 0.38 µM	viability (in vitro [11]): > 95%; selectivity index (SI) against SARS-CoV-2 under DYRA conditions (SARS-CoV-2 [12]; ratio between CC50 and IC50, Calu-3): 11; IC50 (SARS-CoV-2 [13]; Severe acute respiratory syndrome coronavirus 2, Calu-3 cells treated 1 h before infection, compound and virus removed, 72 h incubation, read-out: SARS-CoV-2 Calu-3 IC50 (ENTRY-DYRA conditions, in parenthesis) (converted)): 0.37 µM; selectivity index (SI) against ZIKV (ZIKV; ratio between CC50 and IC50, Huh7): 8
Cc1nc2c(NCc3cccc(S(C)(=O)=O)c3)nccn2c1-c1ccc(O)c(F)c1 [BF738735, reference compound]	–	–	–	–	–	–	–	–	–	–	–	–	–	–	–	IC50 (hRV2 [2]): 0.39 ± 0.36 µM; IC50 (hRV14 [5]): 0.59 ± 0.28 µM; CC50 (HeLa): > 30 µM
CN(C)C(=O)COC(=O)Cc1ccc(OC(=O)c2ccc(NC(=N)N)cc2)cc1 [CMT, Camostat, reference compound]	–	–	–	–	–	–	–	–	200 µM	–	–	–	–	–	–	IC50 (SARS-CoV-2 [12]; [21]): 0.82 ± 0.32 µM; IC50 (SARS-CoV-2 [13]; Severe acute respiratory syndrome coronavirus 2, Calu-3, read-out: SARS-CoV-2 Calu-3 IC50 (ENTRY-DYRA conditions, in parenthesis)): 0.04 µM
CCC(CC)COC(=O)[C@H](C)N[P@](=O)(OC[C@H]1O[C@@](C#N)(c2ccc3c(N)ncnn23)[C@H](O)[C@@H]1O)Oc1ccccc1 [RMD, Remdesivir, reference compound]	–	–	–	–	–	–	–	–	97 µM	–	–	–	–	–	0.11 ± 0.04 µM	–
CC(C)OC(=O)[C@H](C)N[P@](=O)(OC[C@H]1O[C@@H](n2ccc(=O)[nH]c2=O)[C@](C)(F)[C@@H]1O)Oc1ccccc1 [SOF, Sofosbuivir, reference compound]	–	–	–	–	–	–	–	–	–	–	–	–	–	–	–	CC50 [14]: 200 µM; IC50 (ZIKV; Huh-7, 72 h): 2.7 ± 0.5 µM
Cc1nc(NC(=O)C(C)(C)C)sc1-c1csc(Nc2cccc(C(=O)O)c2)n1 [compound 1]	96.4%	–	93.1%	0.21 µg/mL (≈ 0.504 µM)	–	110 µM	–	–	45 µM	< 0.1%	0.052 ×10⁻⁶ cm/s	99.1%	94.1%	36 µM	–	inhibition of EV-A71 replication in infected cells (Enterovirus-A71 (EV-A71)): inhibited; inhibition of CVB3 replication in infected cells (coxsackievirus B3 (CVB3)): inhibited; IC50 (hRV2 [15]): 9.7 µM; IC50 (SARS-CoV-2 [12]; [21]): 7.45 ± 2.47 µM; SARS-CoV-2 Calu-3 IC50 (ENTRY-DYRA conditions, in parenthesis) (SARS-CoV-2 [13]; [22]): no effect on the entry phase; IC50 (hRV14 [16]): 15.3 µM; IC50 (ZIKV; Huh-7, 72 h): 13.8 ± 4.08 µM
CC(=O)c1cccc(N(CCO)c2nc(-c3sc(NC(=O)C(C)(C)C)nc3C)cs2)c1 [compound 2]	98.5%	–	90.4%	–	2.1 ± 0.17 µM	16 µM	1 ± 0.1 µM	–	40 µM	< 0.1%	–	–	94.5%	17 µM	3.95 ± 1.48 µM	inhibition of EV-A71 replication in infected cells (Enterovirus-A71 (EV-A71)): inhibited; inhibition of CVB3 replication in infected cells (coxsackievirus B3 (CVB3)): inhibited; Papp [17]: 1,1 10^−6 cm/sec; IC50 (hRV2 [15]): 6.1 µM; Aqueous Solubility [18]: 0.05* μg/mL; tolerability, acute toxicity and histological alterations in key biodistribution organs [19]: well tolerated; SARS-CoV-2 Calu-3 IC50 (ENTRY-DYRA conditions, in parenthesis) (SARS-CoV-2 [13]; [22]): no effect on the entry phase; IC50 (hRV14 [16]): > 9.1 µM
